For 9 compounds, EC50 and CC50 results are on record in US20230295201A1 (Gilead Sciences, Inc., priority 2020, published 2023).

Read-outs that look alike come from different tables or passages of the source.

The subject of one series is RSV strain A2. In words: RSV HEp-2 EC50 (infectious cytopathic cell protection assay). Type of series: cell-based. The note with it: HEp-2 cells, RSV A2, 4 days, read-out: RSV HEp-2 EC50. In short, it runs like this:
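Percent inhibition of RSV-induced cytopathic effect came from remaining cell viability (CellTiter-Glo luminescence) after 4 days at 37° C. Compounds in 3-fold serial dilutions were exposed to an infectious mix of titered A2 virus and HEp-2 cells at 50,000/ml, with 0% and 100% inhibition control standards.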
For orientation: Damage to the host cells serves as the signal in cytopathic effect assays.

Series [1] can be described thus: HEp-2 CC50 (cytotoxicity, Cell-Titer Glo). The series is classed as cell-based. The note with it: human; uninfected HEp-2 cells, 4-5 days. As for the experimental part:
The same protocol as for the determination of antiviral activity is used for the measurement of compound cytotoxicity except that the cells are not infected with RSV. Instead, an uninfected cell mixture at the same density is added at 20 ul/well to plates containing prediluted compounds, also at 100 nL/sample. Assay plates are then incubated for 4 days followed by a cell viability test using the same CellTiter Glo reagent addition and measurement of luminescent readouts.

The test system of a further series is DENV2 replicon. In words: DENV-2 Huh-7 Rep EC50 (replicon luminescence). The series is classed as cell-based. The note with it: Dengue virus, DENV2, Huh-7, 48 h, Huh-7 replicon cells, 48 hours; read-out: DENV-2 Huh-7 Rep EC50. The procedure, abridged: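 EC50 derived from luminescence dose-response, normalised to DMSO-only 0% inhibition wells, after 1.5 h with EnduRen substrate. Compounds were first exposed for 48 h at 37° C to DENV2 replicon Huh-7 cells (5,000/well).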
(Replicon systems follow genome replication, usually without infectious particles.)

Series [2] is described as follows: in vitro. The note with it: human.
Description: HEp-2 (1.5×10^3 cells/well) and MT-4 (2×10^3 cells/well) cells were plated in 384-well plates and incubated with the appropriate medium containing 3-fold serially diluted compound ranging from 15 nM to 100,000 nM. Cells were cultured for 4-5 days at 37° C. Following the incubation, the cells were allowed to equilibrate to 25° C., and cell viability was determined by adding Cell-Titer Glo viability reagent. The mixture was incubated for 10 min, and the luminescence signal was quantified using an Envision plate reader. Untreated cell and cells treated at 2 μM puromycin (Sigma, St. Louis, MO) serve as 100% and 0% cell viability control, respectively.
Another series relates to RSV A2. In words: RSV NHBE EC50 (RSV A2 antiviral assay in normal human bronchial epithelial cells). Particulars: NHBE cells, RSV A2, 4 days, read-out: RSV NHBE EC50. Type of series: cell-based.
Series [3] can be described thus: in vitro. Particulars: human. The source holds these as a separate data set.
The subject of a further series is HRV16. In words: HRV16 HELA EC50 (cytopathic effect in H1-HeLa cells). Type of series: cell-based. The note with it: 96 h, H1-HeLa cells, 33° C., read-out: HRV16 HELA EC50. In short, it runs like this:
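Read-out is luminescent cell viability (CellTiter-Glo) after 96 h of infection at 33 °C, scaled between uninfected and infected-untreated wells. Before infection with titrated virus, compounds went onto H1-HeLa cells as triplicate 3-fold dilution series.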

Series [4] has as its system Dengue serotype 2 New Guinea C (NGC) strain. In words: DENV-2 Huh-7 EC50 (qPCR in Huh7 cells). Type of series: cell-based. Particulars: Dengue virus, DENV2, Huh-7, 48 h. As for the experimental part: Huh7 (Human hepatocarcinoma 7) cells were maintained in 10% FCS-containing DMEM complete media. On the day of the assay, cells were trypsinized (0.1% Trypsin-EDTA), washed and infected for 2 hours in serum-free DMEM with Dengue serotype 2 New Guinea C (NGC) strain at MOI=0.1 with gentle agitation at 37° C. After 2 hours, cells were washed with serum-free media and suspended in 10% FCS-containing DMEM (Gibco, supplemented with sodium pyruvate, NEAA, Penicillin-Streptomycin). 10^5 cells were plated in triplicate in 96-well plates with compounds dispensed at graded doses (Hewlett-Packard D300 Digital Dispenser). All wells were normalized to 0.25% DMSO. At 48 hours, cells were washed with 1×PBS and all supernatants removed. Total RNA was extracted using RNEasy 96 plates (Qiagen) and used to generate first-strand cDNA using XLT cDNA 5×Supermix (QuantaBio). cDNA was used as a template in a Taqman qPCR duplex reaction specific to DENV2 viral and GAPDH gene expression. EC50 values were determined using Prism Graphpad software, with normalization to a positive control and no compound negative control wells.
In general terms: Real-time PCR tracks product formation cycle by cycle.

The subject of a further series is RSV A strain A2. Nature of the series: RSV HAE EC50 (intracellular RSV RNA by real-time PCR in HAE cells). The series is classed as cell-based. The note with it: read-out: RSV HAE EC50. As for the experimental part:
HAE cells are cultured at the air-liquid interface and have an apical side that is exposed to the air and a basal side that is in contact with the medium. Prior to experimentation, HAE were removed from their agar-based shipping packaging and were acclimated to 37° C./5% CO2 overnight in 1 ml of HAE Assay medium (AIR-100-MM, Mattek Corp). HAE were prepared for infection by washing the apical surface twice with 400 μL of PBS (either utilizing direct pipetting methods or by running each transwell through a trough containing PBS) to remove the mucus layer. Apical chambers were drained of PBS and tapped gently onto absorbent material to remove as much PBS as possible. After washing, the cells were transferred to fresh HAE maintenance media containing 4-fold serially diluted compound, delivered to the basal side of the cell monolayer, and apically infected with 100 μL of a 1:600 dilution of RSV A strain A2 1000× stock (ABI, Columbia, MD, cat #10-124-000) in HAE assay medium for 3 hours at 37° C. in 5% CO2. The virus inoculum was removed and the apical surface of the cells was washed 3 times with PBS using either method previously described. The cells were then cultured in the presence of compound for 3 days at 37° C. Following the incubation, total RNA was extracted from the HAE cells using a MagMAX-96 Viral RNA isolation kit (Applied Biosystems, Foster City, CA, Cat #AM1836) and intracellular RSV RNA was quantified by real-time PCR. Approximately 25 ng of purified RNA was added to a PCR reaction mixture that contained 0.9 μM RSV N Forward and RSV N Reverse primers, 0.2 μM RSV N Probe and 1×Taqman RNA-to-Ct 1-Step Kit (Applied Biosystems, Foster City, CA, Cat #4392938). RNA levels were normalized using a Tagman GAPDH control primer set (Applied Biosystems, Foster City, CA, Cat #402869). Real-Time PCR Primers and Probe Used in the RSV A2 HAE Antiviral Assay: […]

The subject of a further series is HRV99. Nature of the series: HRV99 EC50. The series is classed as cell-based.
In a further series the test system is HRV10. Nature of the series: HRV10 HELA EC50. The series is classed as cell-based.
The next series relates to HRV1a. Nature of the series: HRV1A HELA EC50 (cytopathic effect in H1-HeLa cells). The note with it: 96 h, read-out: HRV1A HELA EC50. Type of series: cell-based. The method, then: (§1) H1-HeLa cells, cultured in complete RPMI 1640 medium containing 10% heat-inactivated FBS and 1% Penicillin/Streptomycin, were seeded in 96 well plates at 5000 cells/well one day prior to compound dosing and infection. The antiviral activity of each compound was measured in triplicate. Compounds were added directly to the cell cultures in serial 3-fold dilutions using the HP300 digital dispenser (Hewlett Packard, Palo Alto, CA) immediately prior to infection. The plates were transferred to BSL-2 containment and 100 μL of 1/4000 dilution of HRV1a virus stock was added to each well containing cells and serially diluted compounds. Each plate included 6 wells of infected untreated cells and 6 wells of cells containing 5 μM Rupintrivir that served as 0% and 100% virus inhibition control, respectively. Following the infection, test plates were incubated for 96 h in a tissue culture incubator set to 37° C./5% CO2. Following incubation, the H1-HeLa cells were removed from incubation and allowed to equilibrate to 25° C. Cell viability was determined by removing 100 μL of culture medium and adding 100 μL of Cell-Titer Glo viability reagent. The mixtures were incubated on a shaker for 10 minutes at 25° C., and the luminescence signal was quantified on an Envision luminescence plate reader.

Another series has as its system HRV14. Nature of the series: HRV14 HELA EC50 (cytopathic effect in H1-HeLa cells). Type of series: cell-based. The note with it: 96 h, read-out: HRV14 HELA EC50. The method, then: as §1, with “HRV14” for “HRV1a”
The mark [5] stands for this setting: human respiratory syncytial virus, HEp-2, 96 h.
The mark [6] stands for this setting: human respiratory syncytial virus, NHBE, 96 h.

As to `CC(C)OC(=O)[C@H](C)N[P@](=O)(OC[C@@]1(C#N)O[C@@H](c2ccc3c(N)ncnn23)[C@H](OC(=O)C(C)(C)C)[C@@H]1O)Oc1ccccc1` (single isomer, unassigned) [Example 238], the EC50 – broadly, the midpoint of the concentration-response curve – in the series on RSV strain A2 (setting [5]) came to 91 nM; in the series on DENV2 replicon it was 9710 nM; in the series with RSV A2 (setting [6]), 41 nM; with HRV16, 731 nM. Besides, the CC50 in series [1] was over 50000 nM; in “in vitro [2]” it was 45000 nM; in “in vitro [3]” it was over 50000 nM.

`CC(C)C(=O)O[C@H]1[C@H](c2ccc3c(N)ncnn23)O[C@](C#N)(CO[P@@](=O)(N[C@@H](C)C(=O)OC2CCCCC2)Oc2ccccc2)[C@H]1O` (single isomer, unassigned) [Example 205]: the EC50 with RSV strain A2 (setting [5]) was 101 nM; in the series with DENV2 replicon, 6100 nM; in the series on RSV A2 (setting [6]), 27 nM; with HRV16 it was 417 nM. In series [1], this compound registered a CC50 of 58600 nM.

Take `C[C@H](NP(=O)(OC[C@@]1(C#N)O[C@@H](c2ccc3c(N)ncnn23)[C@H](O)[C@@H]1O)Oc1ccccc1)C(=O)OC1CCCCCCC1` (single isomer, unassigned) [Example 173]: the EC50 in the series with RSV strain A2 came out at 156 nM; in series [4], 1210 nM; in the series on RSV A2 it was 282 nM; in the series with RSV A strain A2 (human respiratory syncytial virus, HAE, 72 h), 22 nM.

For `C[C@H](NP(=O)(OC[C@@]1(C#N)O[C@@H](c2ccc3c(N)ncnn23)[C@H](O)[C@@H]1O)Oc1ccccc1)C(=O)OCC1CCC1` (mixture of isomers) [Example 2, (2S)-cyclobutylmethyl 2-(((((2R,3S,4R,5S)-5-(4-aminopyrrolo[2,1-f][1,2,4]triazin-7-yl)-2-cyano-3,4-dihydroxytetrahydrofuran-2-yl)methoxy)(phenoxy)phosphoryl)amino)propanoate], the EC50 turned out to be 56 nM in the series with RSV strain A2 (setting [5]); 122 nM in the series on RSV A2 (setting [6]); 708 nM with HRV99; 114 nM in the series on HRV10; 353 nM with HRV16; 106 nM in the series with HRV1a. In the series with HRV14, the EC50 was found to be 340 nM.

On to `CC1CCC(OC(=O)C(C)NP(=O)(OCC2(C#N)OC(c3ccc4c(N)ncnn34)C(O)C2O)Oc2ccccc2)CC1` (centres unmarked) [Example 143], for which the EC50 with RSV strain A2 turned out to be 142 nM; in the series on RSV A2 it was 53 nM; in the series on RSV A strain A2 (HAE cells, RSV A2, 3 days), 157 nM.

For the compound `CC(C)OC(=O)[C@H](C)N[P@](=O)(OC[C@@]1(C#N)O[C@@H](c2ccc3c(N)ncnn23)[C@H](O)[C@@H]1OC(=O)C(C)C)Oc1ccccc1` (single isomer, unassigned) [Example 241], the EC50 worked out at 293 nM with RSV strain A2 (setting [5]), 15500 nM in the series with DENV2 replicon and 190 nM with RSV A2 (setting [6]). In addition, the CC50 (in [1]; in the series “in vitro [2]”) was over 50000 nM each time.

Regarding `CCOC(=O)[C@H](C)N[P@](=O)(OC[C@@]1(C#N)O[C@@H](c2ccc3c(N)ncnn23)[C@@H]2OC(OCC)O[C@@H]21)Oc1ccccc1` (stereo partly drawn) [Example 233, ethyl ((S)-(((3aS,4R,6S,6aS)-6-(4-aminopyrrolo[2,1-f][1,2,4]triazin-7-yl)-4-cyano-2-ethoxytetrahydrofuro[3,4-d][1,3]dioxol-4-yl)methoxy)(phenoxy)phosphoryl)-L-alaninate], the EC50 is 1750 nM in the series with RSV strain A2 (setting [5]), 35800 nM in the series on DENV2 replicon, over 4640 nM with RSV A2 (setting [6]) and 3350 nM with HRV16. Also, the CC50 in [1] was over 50000 nM.

On to `CC(C)C(=O)O[C@H]1[C@@H](O)[C@H](c2ccc3c(N)ncnn23)O[C@]1(C#N)CO[P@@](=O)(N[C@@H](C)C(=O)OC1CCCCC1)Oc1ccccc1` (single isomer, unassigned) [Example 206], for which the EC50 in the series with RSV strain A2 (setting [5]) came out at 85 nM; in the series on RSV A2 (setting [6]) it was 62 nM. In addition, the values for the CC50 (in [1]; in “in vitro [2]”) were 55200 nM and 16600 nM, respectively.

As for `COC(=O)[C@H](C)N[P@](=O)(OC[C@@]1(C#N)O[C@@H](c2ccc3c(N)ncnn23)[C@H](OC(=O)C(C)C)[C@@H]1O)Oc1ccccc1` [Example 250, (2S,3R,4S,5R)-2-(4-aminopyrrolo[2,1-f][1,2,4]triazin-7-yl)-5-cyano-4-hydroxy-5-((((S)—(((S)-1-methoxy-1-oxopropan-2-yl)amino)(phenoxy)phosphoryl)oxy)methyl)tetrahydrofuran-3-yl isobutyrate], the EC50 in the series on RSV strain A2 (setting [5]) was 69 nM; in the series with RSV A2 (setting [6]) it was 51 nM; in the series with HRV16, 1180 nM. This compound also displayed a CC50 in [1] of over 50000 nM.
